In PubChem BioAssay (NCI) one finds TGI data, which are given here for 24 compounds.

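Compound exposure: 48 hours, 5 concentrations, 96-well plates. TGI: total growth inhibition.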 Where a SMILES comes first, the peptide text is derived from it. The star is where a group is joined. Boc = CC(C)(C)OC(=O)*

What all share (test): NCI anticancer screen, dose series, 48 h
Assay [1] has as its system U251 CNS.
Assay [2] relates to COLO 205 colon.
Assay [3] has as its system NCI-H226 lung.
Assay [4] relates to UACC-257 melanoma.
Assay [5] has as its system NCI-H23 lung.
Assay [6] relates to PC-3 prostate.
For assay [7], the system named is OVCAR-3 ovarian.
Assay [8] has as its system MCF7 breast.
Assay [9] has as its system BT-549 breast.
Assay [10] deals with SNB-75 CNS.

Regarding `CCOCC(NC(=O)C(CC(C)C)NC(=O)OC(C)(C)C)C(N)=O` (stereo not drawn) (Boc-Leu-Ser(Et)-NH2; configuration not given here), the TGI in [1] was 2.79 µM; in assay [2], greater than 100 µM; in assay [3], greater than 100 µM; in [4], greater than 100 µM; in assay [5], greater than 100 µM; in [6] it was greater than 100 µM. In addition, the TGI in [7], in assay [8], in assay [9] and in assay [10] was greater than 100 µM each time.
As to `N#C[C@@]12CCCC(=O)[C@@H]1[C@H]1CCC[C@H]12`, the TGI in assay [1] turned out to be 35.5 µM; in assay [2], 45.7 µM; in assay [3], 47.6 µM; in [4] it was 36.2 µM; in [5] it was 35 µM; in [6], 35.7 µM. In addition, the TGI in assay [7] came to 23.7 µM; in assay [8], 49.8 µM; in assay [9] it was 39.2 µM; in [10] it was 36 µM.
`Cc1ccc(O)c(-c2csc(NCN3CCN(CNc4nc(-c5cc(C)ccc5O)cs4)CC3)n2)c1`: the TGI in assay [1], in [2], in [3], in assay [4], in [5] and in assay [6] was greater than 100 µM each time. For the same compound, the TGI in [7], in assay [8], in assay [9] and in assay [10] was greater than 100 µM throughout.
For the compound `NCCCc1c(-c2ccccc2)nc(N)[nH]c1=O`, the TGI in [1], in [2], in assay [3], in assay [4], in assay [5] and in [6] was greater than 100 µM throughout. The TGI in [7], in assay [8], in assay [9] and in assay [10] was greater than 100 µM in each case.
Take `CC1(C)C[C@H](O)[C@H](O)[C@]23C(=O)O[C@H](O)[C@H]2C(C=O)=CC[C@@H]13`: the TGI in assay [1], in assay [2], in [3], in assay [4], in assay [5] and in [6] was greater than 100 µM throughout. The TGI in assay [7], in assay [8], in assay [9] and in assay [10] was greater than 100 µM each time.
As to `CCOC(=O)c1cc(=O)oc2c1N(C)c1ncccc1N2`, the TGI in assay [1], in assay [2], in assay [3], in assay [4], in assay [5] and in assay [6] was greater than 100 µM each time. Besides, the TGI in assay [7], in [8], in assay [9] and in assay [10] was greater than 100 µM throughout.
Turning to `O=C(/C=C\Nc1ccccc1O)C(Cl)(Cl)Cl`, the TGI in [1] is 81.8 µM; in [2], greater than 100 µM; in [3], greater than 100 µM; in [4], greater than 100 µM; in [5], greater than 100 µM; in [6] it was greater than 100 µM. Further, the TGI in assay [7] is 43.1 µM; in assay [8], 64.5 µM; in assay [9], greater than 100 µM; in [10] it was greater than 100 µM.
As to `CC1(C)C(=O)C2(OS(=O)(=O)C(F)(F)F)CCC1C2` (stereo not given), the TGI in assay [1], in assay [2], in assay [3], in assay [4], in assay [5] and in assay [6] was greater than 100 µM each time. Also, the TGI in assay [7], in [8], in assay [9] and in [10] was greater than 100 µM throughout.
Regarding `COC(=O)c1ccc(CCc2cc(O)c(Br)cc2O)cc1`, the TGI in assay [1] is 25.8 µM; in assay [2], 27.3 µM; in [3], 55.1 µM; in [4] it was 30.9 µM; in [5], 15.4 µM; in assay [6], 20.6 µM. Besides, the TGI in assay [7] was 19.8 µM; in assay [8], 28.1 µM; in assay [9] it was 15.8 µM; in [10], greater than 59.6 µM.
As to `N=c1oc2ccc(Cl)cc2cc1C(=O)NCc1ccccc1`, the TGI in assay [1], in assay [2], in assay [3], in [4], in assay [5] and in assay [6] was greater than 100 µM each time. Also, the TGI in [7] is greater than 100 µM; in assay [8], greater than 100 µM; in assay [9] it was greater than 100 µM; in [10], greater than 95 µM.
In the case of `Cc1ccc2cccc3c2c1CC1(C3=O)S(=O)(=O)OCCOS1(=O)=O`, the TGI in assay [1], in assay [2], in assay [3], in [4], in assay [5] and in assay [6] was greater than 100 µM in each case. Moreover, the TGI in [7], in [8], in assay [9] and in assay [10] was greater than 100 µM throughout.
Regarding `CC[C@@]1(O)C(=O)OCc2c1cc1n(c2=O)Cc2c-1nc1ccccc1c2/C=N\NC(=O)C(N)Cc1cnc[nH]1` (stereo not given in full), the TGI is 5.03 µM in [1]; greater than 100 µM in assay [2]; 16.5 µM in [3]; greater than 84.3 µM in assay [4]; 2.45 µM in assay [5]; greater than 100 µM in [6]. In addition, the TGI in [7] is greater than 51.4 µM; in assay [8], 35.3 µM; in assay [9], greater than 100 µM; in [10] it was 36.5 µM.
Regarding `Cc1ccc(/C=N/NC2=NCCN2)s1`, the TGI in [1], in [2], in assay [3], in assay [4], in assay [5] and in [6] was greater than 100 µM in each case. The TGI in assay [7], in assay [8], in assay [9] and in assay [10] was greater than 100 µM throughout.
Regarding `COc1ccc(C(C#N)NCCCCCCNC(C#N)c2ccc(OC)cc2)cc1` (stereo not given), the TGI in assay [1], in [2], in assay [3], in [4], in assay [5] and in [6] was greater than 100 µM in each case. In addition, the TGI in assay [7], in [8], in assay [9] and in assay [10] was greater than 100 µM in each case.
Consider `OCCN=C1c2ccccc2C2C(c3ccccc31)C1c3ccccc3C(=NCCO)c3ccccc3C21` (stereo not given), for which the TGI in assay [1] is 41.3 µM; in assay [2], 44.4 µM; in assay [3], 17.8 µM; in assay [4], 69.2 µM; in assay [5] it was greater than 100 µM; in assay [6] it was 53.8 µM. The TGI is 40.3 µM in [7], 60 µM in assay [8], 52.3 µM in assay [9] and 65.9 µM in assay [10].
For the compound `O=c1c(-c2ccccc2Cl)coc2cc(F)ccc12`, the TGI in assay [1] is 35.3 µM; in [2], greater than 100 µM; in [3], greater than 100 µM; in assay [4], greater than 100 µM; in [5] it was greater than 100 µM; in assay [6], greater than 100 µM. Also, the TGI in assay [7] was greater than 100 µM; in assay [8], greater than 100 µM; in assay [9], 48.5 µM; in assay [10], 54.5 µM.
In the case of `COC1(OC)C2(Cl)C(Cl)=C(Cl)C1(Cl)C1COCC12` (stereo not given), the TGI in [1] is greater than 75 µM; in assay [2], greater than 100 µM; in [3] it was greater than 100 µM; in [4] it was greater than 100 µM; in [5], greater than 71.2 µM; in assay [6], greater than 100 µM. Besides, the TGI in assay [7], in assay [8], in assay [9] and in assay [10] was greater than 100 µM throughout.
On to `Cc1ccc(Nc2sc(C)cc2C#N)c([N+](=O)[O-])c1`, for which the TGI in assay [1], in [2], in assay [3], in assay [4], in [5] and in [6] was greater than 100 µM each time. Further, the TGI in assay [7], in assay [8], in assay [9] and in assay [10] was greater than 100 µM throughout.
With `CCOP(=O)(OCC)/C(C#N)=C/c1cccn1N(C)C`, the TGI in assay [1], in [2], in [3], in assay [4], in [5] and in [6] was greater than 100 µM throughout. For the same compound, the TGI in assay [7], in assay [8], in assay [9] and in [10] was greater than 100 µM each time.
Take `CC(=O)c1c(-c2ccccc2)c(-c2ccc(OCCN(C)C)cc2)n2ccccc12`: the TGI in [1] was 31.3 µM; in assay [2], 27 µM; in [3], 38.3 µM; in [4] it was 28.9 µM; in assay [5], 36.7 µM; in [6], 35.5 µM. Moreover, the TGI in assay [7] stood at 32.8 µM; in assay [8], 32.3 µM; in [9], 30.3 µM; in assay [10], 27.9 µM.
For `O=C(OCC1CCCN2CCCCC12)c1ccncc1` (stereo not given), the TGI in assay [1], in [2], in assay [3], in assay [4], in [5] and in [6] was greater than 100 µM in each case. Besides, the TGI in assay [7], in assay [8], in assay [9] and in [10] was greater than 100 µM throughout.
On to `S=C(c1c[nH]c2ccccc12)N1CCN(c2ccccc2)CC1`, for which the TGI is 77.8 µM in assay [1]; greater than 100 µM in [2]; greater than 100 µM in assay [3]; greater than 100 µM in assay [4]; greater than 100 µM in [5]; greater than 100 µM in assay [6]. For the same compound, the TGI in assay [7] is greater than 100 µM; in assay [8] it was greater than 100 µM; in [9] it was greater than 100 µM; in [10] it was 21.6 µM.
Regarding `CSc1nncc2[nH]cnc12`, the TGI in assay [1], in [2], in [3], in [4], in assay [5] and in assay [6] was greater than 100 µM each time. In addition, the TGI in assay [7], in assay [8], in [9] and in [10] was greater than 100 µM throughout.
Consider `COc1cc(C2SCC(=O)N2c2ccc(Cl)cc2)cc(I)c1O` (stereo not given), for which the TGI in [1] is greater than 100 µM; in assay [2], greater than 23.7 µM; in assay [3] it was greater than 100 µM; in [4], greater than 100 µM; in [5] it was greater than 100 µM; in assay [6], greater than 100 µM. The TGI in assay [7], in assay [8], in [9] and in [10] was greater than 100 µM in each case.
